pIC50: −log10 of the molar value. Counter-ions that a name gives are not always drawn.
Biological target: T1, hCD38 Enzyme (Homo sapiens, UniProt P28907)
T1 construct: purchased Sino Biological Inc 10818-H08H
T1 sequence (P28907 43-300 limits assumed): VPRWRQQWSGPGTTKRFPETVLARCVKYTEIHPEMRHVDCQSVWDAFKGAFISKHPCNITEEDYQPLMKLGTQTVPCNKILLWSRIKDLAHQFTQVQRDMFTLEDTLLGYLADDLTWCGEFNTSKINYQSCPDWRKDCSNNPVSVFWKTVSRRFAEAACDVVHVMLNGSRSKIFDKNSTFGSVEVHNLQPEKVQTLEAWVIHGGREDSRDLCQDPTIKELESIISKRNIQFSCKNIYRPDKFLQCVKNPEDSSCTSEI
Experiment: CD38 hydrolase enzymatic assay
Format: biochemical
Details: rhCD38, ε-NAD substrate, 25° C., point reading time 20 mins; read-out: hCD38 Enzyme inhibition IC50
Experimental: Also, a blank sample was prepared with 50 μl of sucrose buffer and no test compounds.
The dynamic reading was performed at 25° C. with excitation light of 300 nm and emission light of 410 nm on the enzyme marker by contacting the above-prepared rhCD38 enzyme working fluid and the above-prepared solutions of the test compounds disclosed herein or the solution of the control. The readings were recorded for a total of 1 hour, and the data were analyzed with the point reading time of 20 mins.
Fluorescence was recorded by a microplate reader. Individual excel files containing fluorescence data were exported and the results were plotted against various drug concentrations and analyzed in GraphPad Prism 7.0 for concentration curve generation.

| SMILES | pIC50 |
| --- | --- |
| O=C(Nc1cccc(F)c1)c1ccnc(-c2ccn[nH]2)n1 [compound 116, N-(3-fluorophenyl)-2-(1H-pyrazol-5-yl)pyrimidine-4-carboxamide] | < 5.00 |
| O=C(Nc1cccc(F)c1)c1cc(OC2CCC2)nc(-n2ccnc2)n1 [compound 121, 6-cyclobutoxy-N-(3-fluorophenyl)-2-(1H-imidazol-1-yl)pyrimidine-4-carboxamide] | 8.10 |
| O=C(Nc1cccc(Cl)c1)c1cc(C(F)(F)F)nc(-n2ccnc2)n1 [compound 124, N-(3-chlorophenyl)-2-(1H-imidazol-1-yl)-6-(trifluoromethyl) pyrimidine-4-carboxamide] | 8.52 |
| O=C(NC1CCCCC1)c1cc(N2CCCCC2)cc(-n2ccnc2)n1 [compound 130, N-cyclohexyl-6-(1H-imidazol-1-yl)-4-(piperidin-1-yl)picolinamide] | 6.83 |
| O=C(Nc1cc(F)ccc1F)c1cc(N2CCCCC2)nc(-n2ccnc2)n1 [compound 135, N-(2,5-difluorophenyl)-2-(1H-imidazol-1-yl)-6-(piperidin-1-yl)pyrimidine-4-carboxamide] | 7.44 |
| Cc1ccc(F)cc1NC(=O)c1cc(N2CCCCC2)nc(-n2ccnc2)n1 [compound 137, N-(5-fluoro-2-methylphenyl)-2-(1H-imidazol-1-yl)-6-(piperidin-1-yl)pyrimidine-4-carboxamide] | < 5.00 |
| CC1(C)CCC(NC(=O)c2cc(C(F)(F)F)nc(-n3ccnc3)n2)CC1 [compound 138, N-(4,4-dimethylcyclohexyl)-2-(1H-imidazol-1-yl)-6-(trifluoromethyl) pyrimidine-4-carboxamide] | 7.12 |
| CC(C)(C)NC(=O)c1cc(C(F)(F)F)nc(-n2ccnc2)n1 [compound 141, N-(tert-butyl)-2-(1H-imidazol-1-yl)-6-(trifluoromethyl) pyrimidine-4-carboxamide] | 5.99 |
| C[C@H]1CC[C@H](NC(=O)c2cc(N3CCCCC3)nc(-n3ccnc3)n2)CC1 [compound 147, 2-(1H-imidazol-1-yl)-N-((1r,4r)-4-methylcyclohexyl)-6-(piperidin-1-yl)pyrimidine-4-carboxamide] | 7.15 |
| CO[C@H]1CC[C@H](NC(=O)c2nc(-n3ccnc3)ccc2C(F)(F)F)CC1 [compound 151, 6-(1H-imidazol-1-yl)-N-((1r,4r)-4-methoxycyclohexyl)-3-(trifluoromethyl) picolinamide] | 5.81 |
| CO[C@H]1CC[C@H](NC(=O)c2ccnc(-n3cnc(C(F)(F)F)c3)n2)CC1 [compound 153, N-((1r,4r)-4-methoxycyclohexyl)-2-(4-(trifluoromethyl)-1H-imidazol-1-yl) pyrimidine-4-carboxamide] | < 5.00 |
| CO[C@H]1CC[C@H](NC(=O)c2ccnc(-n3ccnc3C(F)(F)F)n2)CC1 [compound 154, N-((1r,4r)-4-methoxycyclohexyl)-2-(2-(trifluoromethyl)-1H-imidazol-1-yl) pyrimidine-4-carboxamide] | < 5.00 |
| COCCO[C@H]1CC[C@H](NC(=O)c2cc(C(F)(F)F)nc(-n3ccnc3)n2)CC1 [compound 157, 2-(1H-imidazol-1-yl)-N-((1r,4r)-4-(2-methoxyethoxy)cyclohexyl)-6-(trifluoromethyl) pyrimidine-4-carboxamide] | 7.31 |
| C[C@H]1CC[C@H](NC(=O)c2cc(C(F)(F)F)cc(-n3ccnc3)n2)CC1 [compound 158, 6-(1H-imidazol-1-yl)-N-((1r,4r)-4-methylcyclohexyl)-4-(trifluoromethyl) picolinamide] | 7.43 |
| O=C(Nc1cccc(F)c1)c1nc(-n2ccnc2)ccc1C(F)(F)F [compound 159, N-(3-fluorophenyl)-6-(1H-imidazol-1-yl)-3-(trifluoromethyl) picolinamide] | 7.47 |
| O=C(Nc1cccc(F)c1)c1ccc(C(F)(F)F)c(-n2ccnc2)n1 [compound 160, N-(3-fluorophenyl)-6-(1H-imidazol-1-yl)-5-(trifluoromethyl) picolinamide] | 6.50 |
| CO[C@H]1CC[C@H](NC(=O)c2nc(-n3ccnc3)ncc2C(F)(F)F)CC1 [compound 161, 2-(1H-imidazol-1-yl)-N-((1r,4r)-4-methoxycyclohexyl)-5-(trifluoromethyl) pyrimidine-4-carboxamide] | 6.08 |
| N#Cc1ccc(NC(=O)c2cc(C(F)(F)F)nc(-n3ccnc3)n2)cc1 [compound 165, N-(4-cyanophenyl)-2-(1H-imidazol-1-yl)-6-(trifluoromethyl) pyrimidine-4-carboxamide] | 8.52 |
| O=C(Nc1cncc(F)c1)c1cc(C(F)(F)F)nc(-n2ccnc2)n1 [compound 167, N-(5-fluoropyridin-3-yl)-2-(1H-imidazol-1-yl)-6-(trifluoromethyl) pyrimidine-4-carboxamide] | 8.40 |
| N#Cc1cncc(NC(=O)c2cc(C(F)(F)F)nc(-n3ccnc3)n2)c1 [compound 169, N-(5-cyanopyridin-3-yl)-2-(1H-imidazol-1-yl)-6-(trifluoromethyl) pyrimidine-4-carboxamide] | 7.70 |

Other lines, results leading:

| pIC50 | SMILES |
| --- | --- |
| 7.37 | O=C(Nc1cccc(F)c1)c1nc(-n2ccnc2)ncc1N1CCCCC1 [compound 115, N-(3-fluorophenyl)-2-(1H-imidazol-1-yl)-5-(piperidin-1-yl) pyrimidine-4-carboxamide] |
| < 5.00 | CN(C(=O)c1cc(N2CCCCC2)nc(-n2ccnc2)n1)c1cccc(F)c1 [compound 117, N-(3-fluorophenyl)-2-(1H-imidazol-1-yl)-N-methyl-6-(piperidin-1-yl)pyrimidine-4-carboxamide] |
| 7.34 | O=C(NC1CCCCC1)c1cc(N2CCCCC2)nc(-n2ccnc2)n1 [compound 144, N-cyclohexyl-2-(1H-imidazol-1-yl)-6-(piperidin-1-yl)pyrimidine-4-carboxamide] |
| 7.74 | C[C@H]1CC[C@H](NC(=O)c2cc(C(F)(F)F)nc(-n3ccnc3)n2)CC1 [compound 146, 2-(1H-imidazol-1-yl)-N-((1r,4r)-4-methylcyclohexyl)-6-(trifluoromethyl) pyrimidine-4-carboxamide] |
| < 5.00 | CO[C@H]1CC[C@H](NC(=O)c2ccc(C(F)(F)F)c(-n3ccnc3)n2)CC1 [compound 152, 6-(1H-imidazol-1-yl)-N-((1r,4r)-4-methoxycyclohexyl)-5-(trifluoromethyl) picolinamide] |
| < 5.00 | O=C(NC1CCNCC1)c1cc(C(F)(F)F)nc(-n2ccnc2)n1 [compound 162, 2-(1H-imidazol-1-yl)-N-(piperidin-4-yl)-6-(trifluoromethyl) pyrimidine-4-carboxamide hydrochloride] |
| 7.04 | O=C(NC1CCOCC1)c1cc(C(F)(F)F)nc(-n2ccnc2)n1 [compound 163, 2-(1H-imidazol-1-yl)-N-(tetrahydro-2H-pyran-4-yl)-6-(trifluoromethyl) pyrimidine-4-carboxamide] |
| 8.40 | N#Cc1ccc(NC(=O)c2cc(C(F)(F)F)nc(-n3ccnc3)n2)cn1 [compound 164, N-(6-cyanopyridin-3-yl)-2-(1H-imidazol-1-yl)-6-(trifluoromethyl) pyrimidine-4-carboxamide] |
| 8.09 | O=C(Nc1ccc(F)cc1)c1cc(C(F)(F)F)nc(-n2ccnc2)n1 [compound 172, N-(4-fluorophenyl)-2-(1H-imidazol-1-yl)-6-(trifluoromethyl) pyrimidine-4-carboxamide] |
